Experimental data taken from patent US10626144B2, “Peptide derivatives and uses thereof” (Nosopharm, priority 2014, dated 2020).
Numbered stars: 1 amine (or outer) side, 2 acyl side, 3 side chain; on linkers, the order of the positions; unused ones are H or OH. Square brackets hold non-standard residues; d marks the D form. Peptide text beside a SMILES is read from it. * marks the point of attachment. Pro(trans-4-F) = O=C(O)[C@@H]1C[C@@H](F)CN1; Pro(cis-4-F) = O=C(O)[C@@H]1C[C@H](F)CN1; Pro(4,4-F2) = O=C(O)[C@@H]1CC(F)(F)CN1; Dab(3S-OH) = NC[C@H](O)[C@H](N)C(=O)O; X4 = N=C(N)NCC/C=C(/N[*:1])C(=O)[*:2]; Ethylenediamine = C(CN[*:2])N[*:1]; ΔZArg = N=C(N)NCC/C=C(\N)C(=O)O; NMeK = CN[C@@H](CCCCN)C(=O)O; dOrn = NCCC[C@@H](N)C(=O)O; Dab = NCC[C@H](N)C(=O)O; NH(CH2)5NH2 = NCCCCCN*; NH(CH2)4NH2 = NCCCCN*

Tests used:
Test in all cases: MIC, broth microdilution (CLSI), reference strain
Conditions in all cases: CAMHB
[1] = system: Pseudomonas aeruginosa ATCC 27853
[2] = system: Staphylococcus aureus ATCC 13709
[3] = system: Acinetobacter baumannii ATCC 19606
[4] = system: Escherichia coli ATCC 25922

SMILES | Pa: MIC Pseudomonas aeruginosa ATCC 27853 [1] | Sa: MIC Staphylococcus aureus ATCC 13709 [2] | Ab: MIC Acinetobacter baumannii ATCC 19606 [3] | Ec: MIC Escherichia coli ATCC 25922 [4]
N=C(N)NCC/C=C(\NC(=O)[C@H](CCCCN)NC(=O)[C@H](Cc1cnc[nH]1)NC(=O)[C@@H]1CCCN1C(=O)[C@@H](CCCN)NC(=O)CNC(=O)[C@H](CCN)NC(=O)[C@H](CCN)NC(=O)[C@@H](N)CCCCN)C(=O)N[C@@H](CCCCN)C(=O)NCCCCN [11.1] (H-K[Dab][Dab]G[dOrn]PHK[ΔZArg]K-{NH(CH2)4NH2}) | − (>32 μg/mL) | ++ (≤8 μg/mL) | − (>32 μg/mL) | − (>32 μg/mL)
N=C(N)NCC/C=C(\NC(=O)[C@H](CCCCN)NC(=O)[C@H](Cc1cnc[nH]1)NC(=O)[C@@H]1CCCN1C(=O)[C@@H](CCCN)NC(=O)CNC(=O)[C@@H](NC(=O)[C@H](CCN)NC(=O)[C@@H](N)CCCCN)[C@@H](O)CN)C(=O)N[C@@H](CCCCN)C(=O)NCCCCN [12.1] (H-K[Dab][Dab(3S-OH)]G[dOrn]PHK[ΔZArg]K-{NH(CH2)4NH2}) | − (>32 μg/mL) | ++ (≤8 μg/mL) | − (>32 μg/mL) | − (>32 μg/mL)
N=C(N)NCC/C=C(\NC(=O)[C@H](CCCCN)NC(=O)[C@H](Cc1cnc[nH]1)NC(=O)[C@@H]1CCCN1C(=O)[C@@H](CCCN)NC(=O)CNC(=O)CNC(=O)[C@H](CCN)NC(=O)[C@@H](N)CCCCN)C(=O)N[C@@H](CCCCN)C(=O)NCCCCN [13.1] (H-K[Dab]GG[dOrn]PHK[ΔZArg]K-{NH(CH2)4NH2}) | − (>32 μg/mL) | + (≤32 μg/mL) | − (>32 μg/mL) | − (>32 μg/mL)
C[C@H](NC(=O)[C@H](CCN)NC(=O)[C@@H](N)CCCCN)C(=O)NCC(=O)N[C@H](CCCN)C(=O)N1CCC[C@H]1C(=O)N[C@@H](Cc1cnc[nH]1)C(=O)N[C@@H](CCCCN)C(=O)N/C(=C/CCNC(=N)N)C(=O)N[C@@H](CCCCN)C(=O)NCCCCN [14.1] (H-K[Dab]AG[dOrn]PHK[X4]K-{NH(CH2)4NH2}) | − (>32 μg/mL) | ++ (≤8 μg/mL) | − (>32 μg/mL) | + (≤32 μg/mL)
C[C@H](NC(=O)[C@H](CCN)NC(=O)[C@@H](N)CCCCN)C(=O)NCC(=O)N[C@H](CCCN)C(=O)N1CCC[C@H]1C(=O)N[C@@H](Cc1cnc[nH]1)C(=O)N[C@@H](CCCCN)C(=O)N/C(=C\CCNC(=N)N)C(=O)N[C@@H](CCCCN)C(=O)NCCCCN [14.2] (H-K[Dab]AG[dOrn]PHK[ΔZArg]K-{NH(CH2)4NH2}) | − (>32 μg/mL) | ++ (≤8 μg/mL) | − (>32 μg/mL) | + (≤32 μg/mL)
C[C@H](NC(=O)[C@H](CCN)NC(=O)[C@@H](N)CCCCN)C(=O)NCC(=O)N[C@H](CCCN)C(=O)N1C[C@@H](F)C[C@H]1C(=O)N[C@@H](Cc1cnc[nH]1)C(=O)N[C@@H](CCCCN)C(=O)N/C(=C\CCNC(=N)N)C(=O)N[C@@H](CCCCN)C(=O)NCCCCN [14.4] (H-K[Dab]AG[dOrn][Pro(cis-4-F)]HK[ΔZArg]K-{NH(CH2)4NH2}) | − (>32 μg/mL) | ++ (≤8 μg/mL) | − (>32 μg/mL) | − (>32 μg/mL)

Second part, the molecule after the results:

Pa: MIC Pseudomonas aeruginosa ATCC 27853 [1] | Sa: MIC Staphylococcus aureus ATCC 13709 [2] | Ab: MIC Acinetobacter baumannii ATCC 19606 [3] | Ec: MIC Escherichia coli ATCC 25922 [4] | SMILES
− (>32 μg/mL) | ++ (≤8 μg/mL) | − (>32 μg/mL) | + (≤32 μg/mL) | C[C@H](NC(=O)[C@H](CCN)NC(=O)[C@@H](N)CCCCN)C(=O)NCC(=O)N[C@H](CCCN)C(=O)N1CCC[C@H]1C(=O)N[C@@H](Cc1cnc[nH]1)C(=O)N[C@@H](CCCCN)C(=O)N/C(=C\CCNC(=N)N)C(=O)N[C@@H](CCCCN)C(=O)NCCCCCN [14.5] (H-K[Dab]AG[dOrn]PHK[ΔZArg]K-{NH(CH2)5NH2})
− (>32 μg/mL) | ++ (≤8 μg/mL) | − (>32 μg/mL) | + (≤32 μg/mL) | C[C@H](NC(=O)[C@H](CCN)NC(=O)[C@@H](N)CCCCN)C(=O)NCC(=O)N[C@H](CCCN)C(=O)N1CCC[C@H]1C(=O)N[C@@H](Cc1cnc[nH]1)C(=O)N[C@@H](CCCCN)C(=O)N/C(=C\CCNC(=N)N)C(=O)N[C@@H](CCCCN)C(=O)NCCN [14.6] (H-K[Dab]AG[dOrn]PHK[ΔZArg]K-Ethylenediamine)
− (>32 μg/mL) | ++ (≤8 μg/mL) | − (>32 μg/mL) | − (>32 μg/mL) | C[C@H](NC(=O)[C@H](CCN)NC(=O)[C@@H](N)CCCCN)C(=O)NCC(=O)N[C@H](CCCN)C(=O)N1C[C@H](F)C[C@H]1C(=O)N[C@@H](Cc1cnc[nH]1)C(=O)N[C@@H](CCCCN)C(=O)N/C(=C\CCNC(=N)N)C(=O)N[C@@H](CCCCN)C(=O)NCCCCN [14.7] (H-K[Dab]AG[dOrn][Pro(trans-4-F)]HK[ΔZArg]K-{NH(CH2)4NH2})
− (>32 μg/mL) | ++ (≤8 μg/mL) | − (>32 μg/mL) | − (>32 μg/mL) | CN[C@@H](CCCCN)C(=O)N[C@@H](CCN)C(=O)N[C@@H](C)C(=O)NCC(=O)N[C@H](CCCN)C(=O)N1CCC[C@H]1C(=O)N[C@@H](Cc1cnc[nH]1)C(=O)N[C@@H](CCCCN)C(=O)N/C(=C\CCNC(=N)N)C(=O)N[C@@H](CCCCN)C(=O)NCCCCN [14.9] (H-[NMeK][Dab]AG[dOrn]PHK[ΔZArg]K-{NH(CH2)4NH2})
− (>32 μg/mL) | ++ (≤8 μg/mL) | − (>32 μg/mL) | − (>32 μg/mL) | C[C@H](NC(=O)[C@H](CCN)NC(=O)[C@@H](N)CCCCN)C(=O)NCC(=O)N[C@H](CCCN)C(=O)N1CC(F)(F)C[C@H]1C(=O)N[C@@H](Cc1cnc[nH]1)C(=O)N[C@@H](CCCCN)C(=O)N/C(=C\CCNC(=N)N)C(=O)N[C@@H](CCCCN)C(=O)NCCCCN [14.10] (H-K[Dab]AG[dOrn][Pro(4,4-F2)]HK[ΔZArg]K-{NH(CH2)4NH2})
− (>32 μg/mL) |  | − (>32 μg/mL) |  | C[C@H](NC(=O)[C@@H](NC(=O)[C@@H](N)CCCCN)[C@@H](O)CN)C(=O)NCC(=O)N[C@H](CCCN)C(=O)N1CCC[C@H]1C(=O)N[C@@H](Cc1cnc[nH]1)C(=O)N[C@@H](CCCCN)C(=O)N/C(=C\CCNC(=N)N)C(N)=O [24.5] (H-K[Dab(3S-OH)]AG[dOrn]PHK[ΔZArg]-NH2)
 | ++ (≤8 μg/mL) |  | ++ (≤8 μg/mL) | C[C@H](NC(=O)[C@@H](NC(=O)[C@@H](N)CCCCN)[C@@H](O)CN)C(=O)NCC(=O)N[C@H](CCCN)C(=O)N1CCC[C@H]1C(=O)N[C@@H](Cc1cnc[nH]1)C(=O)N[C@@H](CCCCN)C(=O)N/C(=C\CCNC(=N)N)C(N)=O [24.125] (H-K[Dab(3S-OH)]AG[dOrn]PHK[ΔZArg]-NH2)
